Laboratory results from patent publication US12600709B2, “Nonpeptide somatostatin type 5 receptor agonists and uses thereof” (Crinetics Pharmaceuticals, Inc., priority 2019, dated 2026).
Read-outs that look alike come from different tables or passages of the source.

Assays:
[1] = target: T1, human somatostatin receptor subtype 5 (Homo sapiens, UniProt P35346); experiment: cAMP assay for SST5R (inhibition of cAMP in CHO-K1 cells); type: cell-based; details: for EC50: inhibition of cAMP via human SST5 receptor, read-out: SST5 potency; for Fold selectivity for SST5 vs SST2: class symbols, SST5 receptor over SST2 receptor
T1 construct: expressed in transfected cells
T1 sequence (P35346 whole entry): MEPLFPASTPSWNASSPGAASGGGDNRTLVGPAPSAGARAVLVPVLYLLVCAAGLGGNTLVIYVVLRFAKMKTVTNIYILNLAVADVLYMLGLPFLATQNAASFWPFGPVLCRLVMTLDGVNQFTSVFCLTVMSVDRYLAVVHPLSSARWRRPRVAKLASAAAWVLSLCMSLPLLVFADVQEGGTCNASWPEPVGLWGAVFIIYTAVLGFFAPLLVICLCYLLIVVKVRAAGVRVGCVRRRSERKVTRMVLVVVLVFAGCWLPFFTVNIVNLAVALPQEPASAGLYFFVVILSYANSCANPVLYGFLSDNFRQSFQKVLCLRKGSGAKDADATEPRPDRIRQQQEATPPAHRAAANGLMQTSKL
Outline: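 CHO-K1 cells stably expressing human SSTR5 were treated 20 min at 37 °C with compounds plus 1.6 μM NKH477 in HBSS, 0.5 mM HEPES pH 7.4, 0.1% BSA, 0.2 mM IBMX. Lysate cAMP measured by HTRF against a standard curve; EC50 from cAMP-versus-concentration plots.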

[2] = target: T2, human somatostatin receptor subtype 2 (Homo sapiens, UniProt P30874); experiment: cAMP assay for SST2R (inhibition of cAMP in CHO-K1 cells); type: cell-based; details: Table B; inhibition of cAMP via human SST2 receptor; read-out: SST2 potency
T2 construct: expressed in transfected cells
T2 sequence (P30874 whole entry): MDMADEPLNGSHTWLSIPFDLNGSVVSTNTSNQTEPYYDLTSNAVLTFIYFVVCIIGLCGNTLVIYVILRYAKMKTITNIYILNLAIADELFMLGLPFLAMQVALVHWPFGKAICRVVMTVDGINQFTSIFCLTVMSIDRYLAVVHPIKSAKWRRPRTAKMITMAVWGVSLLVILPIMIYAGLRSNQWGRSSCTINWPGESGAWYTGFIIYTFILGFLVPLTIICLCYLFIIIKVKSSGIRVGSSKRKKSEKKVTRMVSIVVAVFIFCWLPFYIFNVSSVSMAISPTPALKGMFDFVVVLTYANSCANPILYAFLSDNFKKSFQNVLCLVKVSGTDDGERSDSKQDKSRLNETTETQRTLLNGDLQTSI
Outline: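 Agonism read as decrease in NKH477 (1.6 μM)-stimulated cAMP: compounds applied 20 min, 37° C, with 0.2 mM IBMX, to CHO-K1 stably expressing human SSTR2. cAMP quantified in lysates by time-resolved fluorescence (HTRF kit, 1-24 h RT), standard-curve regression, then EC50.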

| Structure (SMILES) | EC50 ([1]; Table A) [nM] | Fold selectivity for SST5 vs SST2 ([1]; Table B) | EC50 ([1]; Table B) [nM] | EC50 [2] [nM] |
| --- | --- | --- | --- | --- |
| C[C@H](NC(=O)c1cnc(C(F)(F)F)c(-c2cc(F)cc(F)c2)c1N1CC[C@H](N)C1)C1CC1 [1-199, 4-[(3S)-3-aminopyrrolidin-1-yl]-N-[(1S)-1-cyclopropylethyl]-5-(3,5-difluorophenyl)-6-(trifluoromethyl)pyridine-3-carboxamide] | < 10 | +++ (+++=>500) | < 10 | 100 to 1000 |
| COC[C@@]1(N)CCN(c2c(C(=O)N[C@@H](C)C3CC3)cnc(C#N)c2-c2cc(F)cc(F)c2)C1 [1-116, 4-[(3R)-3-amino-3-(methoxymethyl)pyrrolidin-1-yl]-6-cyano-N-[(1S)-1-cyclopropylethyl]-5-(3,5-difluorophenyl)pyridine-3-carboxamide] | < 10 | +++ (+++=>500) | < 10 | > 1000 |
| C[C@H](NC(=O)c1cnc(OCC2COC2)c(-c2cc(F)cc(F)c2)c1N1CC[C@](C)(N)C1)C1CC1 [1-266, 4-[(3S)-3-amino-3-methylpyrrolidin-1-yl]-N-[(1S)-1-cyclopropylethyl]-5-(3,5-difluorophenyl)-6-[(oxetan-3-yl)methoxy]pyridine-3-carboxamide] | < 10 | +++ (+++=>500) | < 10 | > 1000 |
| Cc1ncc(C(=O)N[C@@H](C)C(F)(F)F)c(N2CC[C@H](N)C2)c1-c1cc(F)cc(F)c1 [1-230, 4-[(3S)-3-aminopyrrolidin-1-yl]-5-(3,5-difluorophenyl)-6-methyl-N-[(2S)-1,1,1-trifluoropropan-2-yl]pyridine-3-carboxamide] | < 10 | ++ (++=100 to 499) | < 10 | 100 to 1000 |
| COc1cc(-c2c(C)ncc(C(=O)N[C@@H](C)C3CC3)c2N2CC[C@](C)(N)C2)ccn1 [1-157, 4-[(3S)-3-amino-3-methylpyrrolidin-1-yl]-N-[(1S)-1-cyclopropylethyl]-2′-methoxy-2-methyl-[3,4′-bipyridine]-5-carboxamide] | < 10 | +++ (+++=>500) | < 10 | > 1000 |
| C[C@H](NC(=O)c1cnc(C(F)(F)F)c(-c2cc(Cl)cc(Cl)c2)c1N1CC[C@H](N)C1)C1CC1 [1-215, 4-[(3S)-3-aminopyrrolidin-1-yl]-N-[(1S)-1-cyclopropylethyl]-5-(3,5-dichlorophenyl)-6-(trifluoromethyl)pyridine-3-carboxamide] | < 10 | +++ (+++=>500) | < 10 | 100 to 1000 |
| C[C@H](NC(=O)c1cnc(C#N)c(-c2ccn(C)n2)c1N1CC[C@](C)(N)C1)C1CC1 [1-121, 4-[(3S)-3-amino-3-methylpyrrolidin-1-yl]-6-cyano-N-[(1S)-1-cyclopropylethyl]-5-(1-methyl-1H-pyrazol-3-yl)pyridine-3-carboxamide] | < 10 | +++ (+++=>500) | < 10 | > 1000 |
| CCC(CC)NC(=O)c1cnc(C#N)c(-c2cc(F)cc(F)c2)c1N1CC[C@](C)(N)C1 [1-76, 4-[(3S)-3-amino-3-methylpyrrolidin-1-yl]-6-cyano-5-(3,5-difluorophenyl)-N-(pentan-3-yl)pyridine-3-carboxamide] | < 10 | +++ (+++=>500) | < 10 | > 1000 |
| C[C@H](NC(=O)c1cnc(C#N)c(-c2cc(F)cc(F)c2)c1N1CC[C@H](N)C1)C1CC1 [1-69, 4-[(3S)-3-aminopyrrolidin-1-yl]-6-cyano-N-[(1S)-1-cyclopropylethyl]-5-(3,5-difluorophenyl)pyridine-3-carboxamide] | < 10 | +++ (+++=>500) | < 10 | 100 to 1000 |
| CCC(CC)NC(=O)c1cnc(C#N)c(-c2cc(F)cc(F)c2)c1N1CC[C@H](N)C1 [1-72, 4-[(3S)-3-aminopyrrolidin-1-yl]-6-cyano-5-(3,5-difluorophenyl)-N-(pentan-3-yl)pyridine-3-carboxamide] | < 10 | +++ (+++=>500) | < 10 | 100 to 1000 |
| C[C@]1(N)CCN(c2c(C(=O)N3C4CC5CC(C4)CC3C5)cncc2-c2nc3cccc(Cl)c3[nH]2)C1 [2-45, (3S)-1-(3-{2-azatricyclo[3.3.1.1^3,7]decane-2-carbonyl}-5-(7-chloro-1H-1,3-benzodiazol-2-yl)pyridin-4-yl)-3-methylpyrrolidin-3-amine] | < 10 | ++ (++=100 to 499) | < 10 | 100 to 1000 |
| COc1ncc(C(=O)N[C@@H](C)C2CC2)c(N2CC[C@](C)(N)C2)c1-c1ccc(Cl)c(F)c1 [1-263, 4-[(3S)-3-amino-3-methylpyrrolidin-1-yl]-5-(4-chloro-3-fluorophenyl)-N-[(1S)-1-cyclopropylethyl]-6-methoxypyridine-3-carboxamide] | < 10 | +++ (+++=>500) | < 10 | > 1000 |
| CCCCNC(=O)c1cnc(C#N)c(-c2ccnc(C(F)(F)F)c2)c1N1CC[C@](C)(N)C1 [1-251, 4-[(3S)-3-amino-3-methylpyrrolidin-1-yl]-N-butyl-2-cyano-2′-(trifluoromethyl)-[3,4′-bipyridine]-5-carboxamide] | < 10 | +++ (+++=>500) | < 10 | > 1000 |
| Cc1ncc(C(=O)NC2CCC(F)(F)CC2)c(N2CC[C@H](N)C2)c1-c1cc(F)cc(Cl)c1 [1-277, 4-[(3S)-3-aminopyrrolidin-1-yl]-5-(3-chloro-5-fluorophenyl)-N-(4,4-difluorocyclohexyl)-6-methylpyridine-3-carboxamide] | < 10 | +++ (+++=>500) | < 10 | > 1000 |
| Cc1ncc(C(=O)NC2CCCCC2)c(N2CC[C@](C)(N)C2)c1-c1ccnc(C(F)(F)F)c1 [1-257, 4-[(3S)-3-amino-3-methylpyrrolidin-1-yl]-N-cyclohexyl-2-methyl-2′-(trifluoromethyl)-[3,4′-bipyridine]-5-carboxamide] | < 10 | +++ (+++=>500) | < 10 | > 1000 |
| COc1cc(C#N)cc(-c2c(C)ncc(C(=O)NC3CCC(F)(F)CC3)c2N2CC[C@](C)(N)C2)c1 [1-268, 4-[(3S)-3-amino-3-methylpyrrolidin-1-yl]-5-(3-cyano-5-methoxyphenyl)-N-(4,4-difluorocyclohexyl)-6-methylpyridine-3-carboxamide] | < 10 | +++ (+++=>500) | < 10 | > 1000 |
| Cc1cccc2[nH]c(-c3cncc(C(=O)N4CCC(C5CC5)C4)c3N3CC[C@](C)(N)C3)nc12 (stereo partly drawn) [2-42, (3S)-1-[3-(3-cyclopropylpyrrolidine-1-carbonyl)-5-(4-methyl-1H-1,3-benzodiazol-2-yl)pyridin-4-yl]-3-methylpyrrolidin-3-amine] | < 10 | ++ (++=100 to 499) | < 10 | 100 to 1000 |
| CCC(CC)NC(=O)c1cncc(-c2cc(F)cc(F)c2)c1N1CC[C@](C)(N)C1 [1-31, 4-[(3S)-3-amino-3-methylpyrrolidin-1-yl]-5-(3,5-difluorophenyl)-N-(pentan-3-yl)pyridine-3-carboxamide] | < 10 | ++ (++=100 to 499) | < 10 | 100 to 1000 |
| CC1(C)CC(NC(=O)c2cnc(C#N)c(-c3cc(F)cc(F)c3)c2N2CC[C@](C)(N)C2)CCO1 (stereo partly drawn) [1-113, 4-[(3S)-3-amino-3-methylpyrrolidin-1-yl]-6-cyano-5-(3,5-difluorophenyl)-N-(2,2-dimethyloxan-4-yl)pyridine-3-carboxamide] | < 10 | +++ (+++=>500) | < 10 | > 1000 |
| CCOC(=O)CCCOc1ncc(C(=O)NC2CCC(F)(F)CC2)c(N2CC[C@H](N)C2)c1-c1cc(F)cc(F)c1 [1-202, ethyl 4-({4-[(3S)-3-aminopyrrolidin-1-yl]-5-[(4,4-difluorocyclohexyl)carbamoyl]-3-(3,5-difluorophenyl)pyridin-2-yl}oxy)butanoate] | < 10 | +++ (+++=>500) | < 10 | > 1000 |
